# Measurements taken from patent publication US8119614B2, “Substitution derivatives of N6-benzyladenosine, methods of their preparation, their use for preparation of drugs, cosmetic preparations and growth regulators, pharmaceutical preparations, cosmetic preparations and growth regulators containing these compounds” (Ustav Experimentalni Botaniky Akademie Ved Ceske Republiky, priority 2002, dated 2012).
# Assays:
# [1] = system: breast carcinoma cell lines MCF-7; assay: In vitro cytotoxic activity, Calcein AM assay, MCF7; assay type: cell-based, human; details: 72 hours, read-out: IC 50 MCF7
# Outline: (§1)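 Cells seeded at 10^4 per well, pre-incubated 24 h, then exposed to six 4-fold dilutions (top well concentration usually 166.7 μM, duplicates) for 72 h at 37 °C. Viability read by Calcein AM fluorescence after 1 h; GI50 taken from dose-response curves relative to control wells.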
# [2] = system: Amaranthus caudatus cotyledon/hypocotyl explants; assay: Amaranthus bioassay (betacyanin content); assay type: in vivo; details: for Concentration with highest activity: 48 h dark; for Activity (%) [10^−5 mol · l^−1 BAP = 100%]: at concentration with highest activity
# Outline: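 Surface-sterilised Amaranthus caudatus var. atropurpurea seeds were germinated 72 h at 25° C. in darkness, then de-rooted. Cotyledon/hypocotyl explants (20 per dish) were incubated under green safe light on filter paper with 1 ml medium of 10 μmol NA2HPO4-KH2PO4, pH 6.8, 5 μmol tyrosine and cytokinin (10^-8M to 10^-4M) for 48 h at 25° C. in darkness. Betacyanin was extracted in […] acetic acid and measured by absorbance at 537 nm and 620 nm.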
# [3] = system: promyelocytic HL-60; assay: In vitro cytotoxic activity, Calcein AM assay, HL60; assay type: cell-based, human; details: 72 hours, read-out: IC 50 HL60
# Outline: as §1
# [4] = system: Triticum aestivum cv. Hereward; assay: Senescence inhibition on winter wheat leaf segments (chlorophyll retention); assay type: in vivo; details: for Concentration with highest activity: chlorophyll retention in excised wheat leaf tips, 96 h dark; for Activity (%) [10^−4 mol · l^−1 BAP = 100%]: chlorophyll retention, at concentration with highest activity
# Outline: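 Tip segments of the first leaf from 7-day wheat seedlings held, basal ends down, in cytokinin solutions (10^−8M to 10^−4M) for 96 h at 25° C in darkness. Chlorophyll extracted in 80% ethanol at 80° C, read at 665 nm; activity at best concentration given relative to 10^−4 M BAP (100%), means of five replicates.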
# [5] = system: Human T-lymphoblastic leukemia cell line CEM; assay: In vitro cytotoxic activity, Calcein AM assay, CEM; assay type: cell-based; details: 72 hours
# Outline: as §1
# [6] = system: HOS; assay: In vitro cytotoxic activity, Calcein AM assay, HOS; assay type: cell-based; details: 72 hours
# [7] = system: mouse fibroblasts NIH3T3; assay: In vitro cytotoxic activity, Calcein AM assay, NIH-3T3; assay type: cell-based; details: 72 hours, read-out: IC 50 NIH-3T3
# Outline: as §1
# [8] = system: human erythroleukaemia K562; assay: In vitro cytotoxic activity, Calcein AM assay, K-562; assay type: cell-based; details: 72 hours, read-out: IC 50 K-562
# Outline: as §1
Structure (SMILES),IC50 [1] [µM],Concentration with highest activity [2],Activity (%) [10^−5 mol · l^−1 BAP = 100%] [2] [%],IC50 [3] [µM],Concentration with highest activity [4],Activity (%) [10^−4 mol · l^−1 BAP = 100%] [4] [%],IC50 [5] [µM],IC50 [6] [µM],IC50 [7] [µM],IC50 [8] [µM]
"OC[C@H]1O[C@@H](n2cnc3c(NCc4ccc(Cl)c(Cl)c4)ncnc32)[C@H](O)[C@@H]1O [3,4-dichlorobenzylamino, 6-(3,4-dichlorobenzylamino)purine riboside]",88.8,10^−4 mol · l^−1,68 ± 10,1.1,10^−4 mol · l^−1,151 ± 29,3,> 167,> 167,6.5
"OC[C@H]1O[C@@H](n2cnc3c(NCc4ccccc4Cl)ncnc32)[C@H](O)[C@@H]1O [2-chlorobenzylamino, 6-(2-chlorobenzylamino)purine riboside]",> 167,10^−5 mol · l^−1,113 ± 7,1.6,10^−4 mol · l^−1,119 ± 9,14.5,> 167,> 167,64
"COc1cccc(CNc2ncnc3c2ncn3[C@@H]2O[C@H](CO)[C@@H](O)[C@H]2O)c1 [3-methoxybenzylamino, 6-(3-methoxybenzylamino)purine riboside]",> 167,10^−4 mol · l^−1,98 ± 10,4.9,10^−4 mol · l^−1,209 ± 8,7.6,> 167,> 167,> 167
"OC[C@H]1O[C@@H](n2cnc3c(NCc4cccc(Cl)c4)ncnc32)[C@H](O)[C@@H]1O [3-chlorobenzylamino, 6-(3-chlorobenzylamino)purine riboside]",> 167,10^−5 mol · l^−1,139 ± 12,0.75,10^−4 mol · l^−1,72 ± 8,1.6,> 167,> 167,30.4
"Cc1cccc(CNc2ncnc3c2ncn3[C@@H]2O[C@H](CO)[C@@H](O)[C@H]2O)c1 [3-methylbenzylamino, 6-(3-methylbenzylamino)purine riboside]",> 167,10^−5 mol · l^−1,103 ± 16,6.4,10^−4 mol · l^−1,143 ± 9,19.1,> 167,> 167,> 167
"OC[C@H]1O[C@@H](n2cnc3c(NCc4cccc(F)c4)ncnc32)[C@H](O)[C@@H]1O [3-fluorobenzylamino, 6-(3-fluorobenzylamino)purine riboside]",16.6,10^−4 mol · l^−1,92 ± 6,0.92,10^−4 mol · l^−1,220 ± 16,4,> 167,> 167,7
"OC[C@H]1O[C@@H](n2cnc3c(NCc4ccc(Cl)cc4)ncnc32)[C@H](O)[C@@H]1O [4-chlorobenzylamino, 6-(4-chlorobenzylamino)purine riboside]",> 167,10^−5 mol · l^−1,35 ± 9,5.3,10^−4 mol · l^−1,104 ± 6,6.5,> 167,> 167,16.1
"OC[C@H]1O[C@@H](n2cnc3c(NCc4ccccc4F)ncnc32)[C@H](O)[C@@H]1O [2-fluorobenzylamino, 6-(2-fluorobenzylamino)purine riboside]",> 167,10^−4 mol · l^−1,96 ± 2,3.2,10^−4 mol · l^−1,118 ± 19,4.6,> 167,,33.2
"COc1ccccc1CNc1ncnc2c1ncn2[C@@H]1O[C@H](CO)[C@@H](O)[C@H]1O [2-methoxybenzylamino, 6-(2-methoxybenzylamino)purine riboside]",> 167,10^−5 mol · l^−1,86 ± 4,2.3,10^−4 mol · l^−1,198 ± 12,3.2,21.2,> 167,11.2
"COc1cccc(CNc2ncnc3c2ncn3[C@@H]2O[C@H](CO)[C@@H](O)[C@H]2O)c1O [2-hydroxy-3-methoxybenzylamino, 6-(2-hydroxy-3-methoxybenzylamino)purine riboside]",27,10^−4 mol · l^−1,18 ± 5,0.15,10^−4 mol · l^−1,30 ± 8,0.3,> 167,> 167,19.2
"Cc1ccccc1CNc1ncnc2c1ncn2[C@@H]1O[C@H](CO)[C@@H](O)[C@H]1O [2-methylbenzylamino, 6-(2-methylbenzylamino)purine riboside]",> 167,10^−5 mol · l^−1,105 ± 14,3.3,10^−4 mol · l^−1,142 ± 6,14,> 167,> 167,> 167
"OC[C@H]1O[C@@H](n2cnc3c(NCc4ccc(F)cc4)ncnc32)[C@H](O)[C@@H]1O [4-fluorobenzylamino, 6-(4-fluorobenzylamino)purine riboside]",14,10^−5 mol · l^−1,71 ± 4,0.86,10^−4 mol · l^−1,148 ± 2,1.5,20,> 167,6.4
"OC[C@H]1O[C@@H](n2cnc3c(NCc4cccc(Br)c4)ncnc32)[C@H](O)[C@@H]1O [3-bromobenzylamino, 6-(3-bromobenzylamino)purine riboside]",> 167,10^−4 mol · l^−1,151 ± 16,8,10^−4 mol · l^−1,89 ± 10,5,> 167,> 167,19.7
